Laboratory results reported in ChEMBL document CHEMBL1137071, “Phenyl thiazolyl urea and carbamate derivatives as new inhibitors of bacterial cell-wall biosynthesis” (Bioorg Med Chem Lett, 2004).
Converted amounts (≈) assume the structure as drawn. Values belong to the compound of their own block, whether it stands above or below them.

Columns and labels:
Format in all cases: functional
[1] = test system: Enterococcus faecalis; test: Antimicrobial activity against Enterococcus faecalis GC 2242 (VRE)
[2] = test system: Escherichia coli; test: Antimicrobial activity against Escherichia coli GC 4559
[3] = test system: Escherichia coli; test: Antimicrobial activity against Escherichia coli GC 4560
[4] = test system: Enterococcus faecalis; test: Antimicrobial activity against Enterococcus faecalis GC 4555 (ATCC)
[5] = Inhibitory activity against MurA from Escherichia coli
[6] = Inhibitory activity against MurB from Escherichia coli
[7] = Inhibitory activity against MurB from Staphylococcus aureus
[8] = Antimicrobial activity against MSCNS (methicillin-susceptible coagulase-negative staphylococci) GC 646; settings: Staphylococcus
[9] = test system: Staphylococcus aureus; test: Antimicrobial activity against Staphylococcus aureus GC 1131 (MRSA)
[10] = test system: Staphylococcus aureus; test: Antimicrobial activity against Staphylococcus aureus GC 2216 (ATCC)
[11] = test system: Staphylococcus aureus; test: Antimicrobial activity against Staphylococcus aureus GC 4543 (MSSA)
[12] = test system: Streptococcus pneumoniae; test: Antimicrobial activity against Streptococcus pneumoniae GC1894 (PRSP) in the presence of 4% bovine serum albumin
[13] = test system: Streptococcus pneumoniae; test: Antimicrobial activity against Streptococcus pneumoniae GC1894 (PRSP)

Compound: Cc1ccc(NC(=O)Nc2nc(C(C)(C)C)c(C#N)s2)cc1C
MIC [1]: 0.5 mg/L (≈ 1.52 µM)
MIC [2]: > 128 mg/L
MIC [3]: 2 mg/L (≈ 6.09 µM)
MIC [4]: 0.5 mg/L (≈ 1.52 µM)
IC50 [5]: > 25 mg/L
IC50 [6]: 6.2 mg/L (≈ 18.9 µM)
IC50 [7]: 6.3 mg/L (≈ 19.2 µM)
MIC [8]: 0.5 mg/L (≈ 1.52 µM)
MIC [9]: 0.5 mg/L (≈ 1.52 µM)
MIC [10]: 0.25 mg/L (≈ 0.761 µM)
MIC [11]: 0.25 mg/L (≈ 0.761 µM)
MIC [12]: 128 mg/L
MIC [13]: < 0.12 mg/L

Compound: O=C(Nc1ccc(Cl)c(Cl)c1)Nc1nccs1
MIC [1]: 4 mg/L (≈ 13.9 µM)
MIC [2]: > 128 mg/L
MIC [3]: 0.5 mg/L (≈ 1.74 µM)
MIC [4]: 4 mg/L (≈ 13.9 µM)
IC50 [5]: 20 mg/L (≈ 69.4 µM)
IC50 [6]: > 25 mg/L
IC50 [7]: > 25 mg/L
MIC [8]: 2 mg/L (≈ 6.94 µM)
MIC [9]: 2 mg/L (≈ 6.94 µM)
MIC [10]: 2 mg/L (≈ 6.94 µM)
MIC [11]: 2 mg/L (≈ 6.94 µM)
MIC [12]: > 128 mg/L
MIC [13]: 0.5 mg/L (≈ 1.74 µM)

Compound: N#Cc1csc(NC(=O)Nc2ccc(Cl)c(Cl)c2)n1
MIC [1]: 2 mg/L (≈ 6.39 µM)
MIC [2]: > 128 mg/L
MIC [3]: 8 mg/L (≈ 25.5 µM)
MIC [4]: 8 mg/L (≈ 25.5 µM)
IC50 [5]: > 25 mg/L
IC50 [6]: > 25 mg/L
IC50 [7]: 14 mg/L (≈ 44.7 µM)
MIC [8]: 4 mg/L (≈ 12.8 µM)
MIC [9]: 8 mg/L (≈ 25.5 µM)
MIC [10]: 4 mg/L (≈ 12.8 µM)
MIC [11]: 4 mg/L (≈ 12.8 µM)
MIC [12]: 128 mg/L
MIC [13]: < 0.12 mg/L

Compound: N#Cc1sc(NC(=O)Nc2ccc(Cl)c(Cl)c2)nc1N1CCOCC1
MIC [1]: 128 mg/L (≈ 321 µM)
MIC [2]: > 128 mg/L
MIC [3]: > 128 mg/L
MIC [4]: > 128 mg/L
IC50 [5]: > 25 mg/L
IC50 [6]: > 25 mg/L
IC50 [7]: 13 mg/L (≈ 32.6 µM)
MIC [8]: > 128 mg/L
MIC [9]: > 128 mg/L
MIC [10]: > 128 mg/L
MIC [11]: > 128 mg/L
MIC [12]: > 128 mg/L
MIC [13]: > 128 mg/L

Compound: CC(C)(C)c1nc(NC(=O)Nc2ccc(Cl)c(Cl)c2)sc1C#N
MIC [1]: < 0.12 mg/L
MIC [2]: > 128 mg/L
MIC [3]: 0.5 mg/L (≈ 1.35 µM)
MIC [4]: 0.25 mg/L (≈ 0.677 µM)
IC50 [5]: 3.3 mg/L (≈ 8.94 µM)
IC50 [6]: 6.2 mg/L (≈ 16.8 µM)
IC50 [7]: 2.8 mg/L (≈ 7.58 µM)
MIC [8]: < 0.12 mg/L
MIC [9]: < 0.12 mg/L
MIC [10]: < 0.12 mg/L
MIC [11]: < 0.12 mg/L
MIC [12]: 128 mg/L
MIC [13]: < 0.12 mg/L

Compound: N#Cc1cnc(NC(=O)NCc2ccc(Cl)c(Cl)c2)s1
MIC [1]: 64 mg/L (≈ 196 µM)
MIC [2]: > 128 mg/L
MIC [3]: > 128 mg/L
MIC [4]: > 128 mg/L
IC50 [5]: > 25 mg/L
IC50 [6]: > 25 mg/L
IC50 [7]: 24 mg/L (≈ 73.4 µM)
MIC [8]: > 128 mg/L
MIC [9]: > 128 mg/L
MIC [10]: > 128 mg/L
MIC [11]: > 128 mg/L
MIC [12]: 128 mg/L
MIC [13]: 64 mg/L (≈ 196 µM)

Continued, values first:

MIC [1]: > 128 mg/L
MIC [2]: > 128 mg/L
MIC [3]: > 128 mg/L
MIC [4]: > 128 mg/L
IC50 [5]: 25 mg/L (≈ 83 µM)
IC50 [6]: 25 mg/L (≈ 83 µM)
IC50 [7]: 25 mg/L (≈ 83 µM)
MIC [8]: > 128 mg/L
MIC [9]: > 128 mg/L
MIC [10]: > 128 mg/L
MIC [11]: > 128 mg/L
MIC [12]: > 128 mg/L
MIC [13]: > 128 mg/L
Compound: CC(C)(C)c1nc(NC(=O)Nc2cccnc2)sc1C#N

MIC [1]: 64 mg/L (≈ 195 µM)
MIC [2]: > 128 mg/L
MIC [3]: > 128 mg/L
MIC [4]: 64 mg/L (≈ 195 µM)
IC50 [5]: > 25 mg/L
IC50 [6]: > 25 mg/L
IC50 [7]: 24 mg/L (≈ 73.1 µM)
MIC [8]: > 128 mg/L
MIC [9]: > 128 mg/L
MIC [10]: > 128 mg/L
MIC [11]: > 128 mg/L
MIC [12]: > 128 mg/L
MIC [13]: 128 mg/L (≈ 390 µM)
Compound: N#Cc1cnc(NC(=O)OCc2ccc(Cl)c(Cl)c2)s1

MIC [1]: 0.5 mg/L (≈ 1.6 µM)
MIC [2]: > 128 mg/L
MIC [3]: 4 mg/L (≈ 12.8 µM)
MIC [4]: 1 mg/L (≈ 3.19 µM)
IC50 [5]: 12.6 mg/L (≈ 40.2 µM)
IC50 [6]: 4.5 mg/L (≈ 14.4 µM)
IC50 [7]: 5.6 mg/L (≈ 17.9 µM)
MIC [8]: 1 mg/L (≈ 3.19 µM)
MIC [9]: 1 mg/L (≈ 3.19 µM)
MIC [10]: 0.5 mg/L (≈ 1.6 µM)
MIC [11]: 0.5 mg/L (≈ 1.6 µM)
MIC [12]: 128 mg/L
MIC [13]: < 0.12 mg/L
Compound: N#Cc1cnc(NC(=O)Nc2ccc(Cl)c(Cl)c2)s1

MIC [1]: 8 mg/L (≈ 24.6 µM)
MIC [2]: > 128 mg/L
MIC [3]: > 128 mg/L
MIC [4]: 16 mg/L (≈ 49.2 µM)
IC50 [5]: > 25 mg/L
IC50 [6]: > 25 mg/L
IC50 [7]: > 25 mg/L
MIC [8]: > 128 mg/L
MIC [9]: > 128 mg/L
MIC [10]: > 128 mg/L
MIC [11]: > 128 mg/L
MIC [12]: > 128 mg/L
MIC [13]: 8 mg/L (≈ 24.6 µM)
Compound: CC(C)(C)c1nc(NC(=O)Nc2cccc(C#N)c2)sc1C#N
